Measured values published in US20250320206A1, “STAT6 DEGRADERS” (Gilead Sciences, Inc., priority 2024, published 2025).

Experiments:
[1] = test system: Eotaxin-3 release in human whole blood stimulated with IL-4; test: Human Whole Blood Eotaxin-3 Assay (IL-4 stimulated eotaxin-3 release); type: cell-based; settings: IL-4 stimulation, 48 h, values given for compounds with >80% Emax, geometric mean
Procedure, shortened: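 Lithium-heparin human whole blood preincubated 2 h at 37° C with 4-fold serially diluted compounds (0.5% DMSO), then stimulated with recombinant human IL-4 ([…]) for 48 h. Eotaxin-3 (CCL26) in supernatant quantified by MSD immunoassay.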

STAT6 = biological target: T1, STAT6 (Homo sapiens, UniProt P42226); test: Stat6 Degrader Assay (HiBiT based, HeLa LgBiT clone 4.14); type: cell-based; settings: HeLa LgBiT clone 4.14 HiBiT-STAT6, 4-24 h incubation; values given for compounds with >80% Emax; geometric mean; read-out: STAT6 degradation DC50
T1 construct: These cells express endogenous STAT6; host or cells: HeLa LgBiT clone 4.14
T1 sequence (P42226 1-847): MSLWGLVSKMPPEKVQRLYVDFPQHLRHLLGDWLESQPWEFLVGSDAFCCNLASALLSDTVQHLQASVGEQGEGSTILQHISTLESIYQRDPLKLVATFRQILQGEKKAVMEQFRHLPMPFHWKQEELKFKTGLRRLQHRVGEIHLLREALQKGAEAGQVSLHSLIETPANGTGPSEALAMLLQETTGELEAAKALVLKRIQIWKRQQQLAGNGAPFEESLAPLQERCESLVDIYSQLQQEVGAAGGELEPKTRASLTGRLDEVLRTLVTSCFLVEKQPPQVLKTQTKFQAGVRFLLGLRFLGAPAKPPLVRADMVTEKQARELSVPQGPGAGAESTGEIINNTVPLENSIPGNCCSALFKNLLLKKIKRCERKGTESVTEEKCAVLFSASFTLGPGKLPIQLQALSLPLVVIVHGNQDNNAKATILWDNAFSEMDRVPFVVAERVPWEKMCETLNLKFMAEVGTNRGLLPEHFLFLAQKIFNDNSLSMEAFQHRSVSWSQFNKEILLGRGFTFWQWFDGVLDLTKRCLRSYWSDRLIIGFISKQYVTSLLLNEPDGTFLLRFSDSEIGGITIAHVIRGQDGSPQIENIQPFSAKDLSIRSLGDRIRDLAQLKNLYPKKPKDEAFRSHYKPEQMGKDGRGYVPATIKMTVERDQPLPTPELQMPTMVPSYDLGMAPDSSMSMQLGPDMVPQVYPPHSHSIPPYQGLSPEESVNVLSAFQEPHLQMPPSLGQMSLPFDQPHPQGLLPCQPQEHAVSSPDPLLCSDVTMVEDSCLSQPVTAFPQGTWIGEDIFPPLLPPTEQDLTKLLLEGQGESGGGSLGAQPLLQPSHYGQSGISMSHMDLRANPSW
Procedure, shortened: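 HeLa LgBiT clone 4.14 cells with CRISPR HiBiT-tagged endogenous STAT6, 5000 cells/well, compound dosed then incubated 4-24 h at 37° C, 5% CO2. Nano-Glo substrate added, 0.5 h, luminescence read as non-degraded STAT6. Terfenadine 50 μM (cell kill) defines 100% degradation.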

| Structure (SMILES) | EC50 [1] | DC50 (STAT6) |
| --- | --- | --- |
| C[C@H]1CN(Cc2ccc3c(c2)n(C2CC2)c(=O)n3C2CCC(=O)NC2=O)CCN1CC1CCN(C(=O)c2cc(F)c(C3CCN([C@@H](C)c4cc5c(-n6ccc7c(c6=O)CCN7)ccnc5n4C)CC3)c(F)c2)CC1 (stereo partly drawn) [Example 3u196, 3-(3-cyclopropyl-5-(((S)-4-((1-(3,5-difluoro-4-(1-((S)-1-(1-methyl-4-(4-oxo-1,2,3,4-tetrahydro-5H-pyrrolo[3,2-c]pyridin-5-yl)-1H-pyrrolo[2,3-b]pyridin-2-yl)ethyl)piperidin-4-yl)benzoyl)-piperidin-4-yl)methyl)-3-methylpiperazin-1-yl)methyl)-2-oxo-2,3-dihydro-1H-benzo[d]imidazol-1-yl)-piperidine-2,6-dione] | 0.5 nM | 0.3 nM |
| C[C@H]1CN(Cc2cc3c(cc2F)N(C2CCC(=O)NC2=O)C(=O)C3(C)C)CCN1CC1CCN(C(=O)c2cc(F)c(C3=CCN([C@@H](C)c4cc5c(-n6ccc7c(c6=O)CCN7)ccnc5n4C)CC3)c(F)c2)CC1 (stereo partly drawn) [Example 3u200, 3-(5-(((S)-4-((1-(3,5-difluoro-4-(1-((S)-1-(1-methyl-4-(4-oxo-1,2,3,4-tetrahydro-5H-pyrrolo[3,2-c]pyridin-5-yl)-1H-pyrrolo[2,3-b]pyridin-2-yl)ethyl)-1,2,3,6-tetrahydropyridin-4-yl)-benzoyl)piperidin-4-yl)methyl)-3-methylpiperazin-1-yl)methyl)-6-fluoro-3,3-dimethyl-2-oxoindolin-1-yl)piperidine-2,6-dione] | 9.9 nM | 2 nM |
| CNc1ccn(-c2ccnc3c2cc([C@H](C)N2CC=C(c4c(C)cc(C(=O)N5CCC(CN6CCN(Cc7cc8c(cc7F)n(C7CCC(=O)NC7=O)c(=O)n8C)C[C@@H]6C)CC5)cc4F)CC2)n3C)c(=O)c1 (stereo partly drawn) [Example 3u207, 3-(6-fluoro-5-(((S)-4-((1-(3-fluoro-5-methyl-4-(1-((S)-1-(1-methyl-4-(4-(methyl-amino)-2-oxopyridin-1 (2H)-yl)-1H-pyrrolo[2,3-b]pyridin-2-yl)ethyl)-1,2,3,6-tetrahydropyridin-4-yl)-benzoyl)piperidin-4-yl)methyl)-3-methylpiperazin-1-yl)methyl)-3-methyl-2-oxo-2,3-dihydro-1H-benzo[d]imidazol-1-yl)piperidine-2,6-dione] | 0.2 nM | 0.3 nM |
| CNc1cc(=O)n(-c2ccnc3c2cc(CN2CC=C(c4c(F)cc(C(=O)N5CCC(CN6CCN(Cc7ccc8c(c7)n(C7CC7)c(=O)n8C7CCC(=O)NC7=O)C[C@@H]6C)CC5)cc4F)CC2)n3C)cc1F (stereo partly drawn) [Example 3u213, 3-(3-cyclopropyl-5-(((S)-4-((1-(3,5-difluoro-4-(1-((4-(5-fluoro-4-(methylamino)-2-oxopyridin-1 (2H)-yl)-1-methyl-1H-pyrrolo[2,3-b]pyridin-2-yl)methyl)-1,2,3,6-tetrahydropyridin-4-yl)benzoyl)piperidin-4-yl)methyl)-3-methylpiperazin-1-yl)methyl)-2-oxo-2,3-dihydro-1H-benzo[d]imidazol-1-yl)piperidine-2,6-dione] | 13.2 nM | 8.6 nM |
| CNc1cc(=O)n(-c2ccnc3c2cc(CN2CCC(c4c(F)cc(C(=O)N5CCC(CN6CCN(Cc7ccc8c(c7)C7(CC7)C(=O)N8C7CCC(=O)NC7=O)C[C@@H]6C)CC5)cc4F)CC2)n3C)cc1F (stereo partly drawn) [Example 3u219, 3-(5′-(((S)-4-((1-(3,5-difluoro-4-(1-((4-(5-fluoro-4-(methylamino)-2-oxopyridin-1 (2H)-yl)-1-methyl-1H-pyrrolo[2,3-b]pyridin-2-yl)methyl)piperidin-4-yl)benzoyl)piperidin-4-yl)methyl)-3-methylpiperazin-1-yl)methyl)-2′-oxospiro[cyclopropane-1,3′-indolin]-1′-yl)piperidine-2,6-dione] | 2.2 nM | 1.8 nM |

The next lines start with the values.

| EC50 [1] | DC50 (STAT6) | Structure (SMILES) |
| --- | --- | --- |
| 2.4 nM | 1.9 nM | CNc1ccn(-c2ccnc3c2cc([C@H](C)N2CC=C(c4c(C)cc(C(=O)N5CCC(CN6CCN(Cc7cc8c(cc7F)N(C7CCC(=O)NC7=O)C(=O)C87CC7)C[C@@H]6C)CC5)cc4F)CC2)n3C)c(=O)c1 (stereo partly drawn) [Example 3u193, 3-(6′-fluoro-5′-(((S)-4-((1-(3-fluoro-5-methyl-4-(1-((S)-1-(1-methyl-4-(4-(methyl-amino)-2-oxopyridin-1 (2H)-yl)-1H-pyrrolo[2,3-b]pyridin-2-yl)ethyl)-1,2,3,6-tetrahydropyridin-4-yl)benzoyl)piperidin-4-yl)methyl)-3-methylpiperazin-1-yl)methyl)-2′-oxospiro[cyclopropane-1,3′-indolin]-1′-yl)piperidine-2,6-dione] |
| 2.7 nM | 1.2 nM | CNc1ccn(-c2ccnc3c2cc([C@H](C)N2CCC(c4c(C)cc(C(=O)N5CCC(CN6CCN(Cc7ccc8c(c7)n(C7CC7)c(=O)n8C7CCC(=O)NC7=O)C[C@@H]6C)CC5)cc4F)CC2)n3C)c(=O)c1 (stereo partly drawn) [Example 3u197, 3-(3-cyclopropyl-5-(((S)-4-((1-(3-fluoro-5-methyl-4-(1-((S)-1-(1-methyl-4-(4-(methyl-amino)-2-oxopyridin-1 (2H)-yl)-1H-pyrrolo[2,3-b]pyridin-2-yl)ethyl)piperidin-4-yl)benzoyl)piperidin-4-yl)methyl)-3-methylpiperazin-1-yl)methyl)-2-oxo-2,3-dihydro-1H-benzo[d]imidazol-1-yl)piperidine-2,6-dione] |
| 3.8 nM | 1.3 nM | CNc1ccn(-c2ccnc3c2cc([C@H](C)N2CC=C(c4c(F)cc(C(=O)N5CCC(CN6CCN(Cc7ccc8c(c7)C(C)(C)C(=O)N8C7CCC(=O)NC7=O)C[C@@H]6C)CC5)cc4F)CC2)n3C)c(=O)c1 (stereo partly drawn) [Example 3u201, 3-(5-(((S)-4-((1-(3,5-difluoro-4-(1-((S)-1-(1-methyl-4-(4-(methylamino)-2-oxopyridin-1 (2H)-yl)-1H-pyrrolo[2,3-b]pyridin-2-yl)ethyl)-1,2,3,6-tetrahydropyridin-4-yl)benzoyl)piperidin-4-yl)-methyl)-3-methylpiperazin-1-yl)methyl)-3,3-dimethyl-2-oxoindolin-1-yl)piperidine-2,6-dione] |
| 4.6 nM | 2.5 nM | CNc1ccn(-c2ccnc3c2cc(CN2CCC(c4c(F)cc(C(=O)N5CCC(CN6CCN(Cc7ccc8c(c7)C(C)(C)C(=O)N8C7CCC(=O)NC7=O)C[C@@H]6C)CC5)cc4F)CC2)n3C)c(=O)c1 (stereo partly drawn) [Example 3u204, 3-(5-(((S)-4-((1-(3,5-difluoro-4-(1-((1-methyl-4-(4-(methylamino)-2-oxopyridin-1 (2H)-yl)-1H-pyrrolo[2,3-b]pyridin-2-yl)methyl)piperidin-4-yl)benzoyl)piperidin-4-yl)methyl)-3-methyl-piperazin-1-yl)methyl)-3,3-dimethyl-2-oxoindolin-1-yl)piperidine-2,6-dione] |
| 1.1 nM | 0.5 nM | CNc1ccn(-c2ccnc3c2cc([C@H](C)N2CC=C(c4c(F)cc(C(=O)N5CCC(CN6CCN(Cc7ccc8c(c7)n(C7CC7)c(=O)n8C7CCC(=O)NC7=O)C[C@@H]6C)CC5)cc4F)CC2)n3C)c(=O)c1 (stereo partly drawn) [Example 3u210, 3-(3-cyclopropyl-5-(((S)-4-((1-(3,5-difluoro-4-(1-((S)-1-(1-methyl-4-(4-(methylamino)-2-oxopyridin-1 (2H)-yl)-1H-pyrrolo[2,3-b]pyridin-2-yl)ethyl)-1,2,3,6-tetrahydropyridin-4-yl)benzoyl)-piperidin-4-yl)methyl)-3-methylpiperazin-1-yl)methyl)-2-oxo-2,3-dihydro-1H-benzo[d]imidazol-1-yl)piperidine-2,6-dione] |
| 1.5 nM | 3.5 nM | CNc1ccn(-c2ccnc3c2cc(CN2CCC(c4c(F)cc(C(=O)N5CCC(CN6CCN(Cc7ccc8c(c7)n(C7CC7)c(=O)n8C7CCC(=O)NC7=O)C[C@@H]6C)CC5)cc4F)CC2)n3C)c(=O)c1 (stereo partly drawn) [Example 3u216, 3-(3-cyclopropyl-5-(((S)-4-((1-(3,5-difluoro-4-(1-((1-methyl-4-(4-(methylamino)-2-oxopyridin-1 (2H)-yl)-1H-pyrrolo[2,3-b]pyridin-2-yl)methyl)piperidin-4-yl)benzoyl)piperidin-4-yl)-methyl)-3-methylpiperazin-1-yl)methyl)-2-oxo-2,3-dihydro-1H-benzo[d]imidazol-1-yl)piperidine-2,6-dione] |
